Source: patent US11925655B2, “FAP-activated therapeutic agents, and uses related thereto” (Bach Biosciences, LLC, priority 2014, dated 2024)
pEC50: −log10 of the molar value. Read-outs that look alike come from different tables or passages of the source.

How the values were obtained:
HEK-mFAP cells = experiment: CellTiter-Blue cell viability assay with HEK-mFAP cells; assay type: cell-based, human; settings: Homo sapiens, 72 h
SK-OV-3 = experiment: CellTiter-Blue cell viability assay: SK-OV-3; assay type: cell-based; settings: Homo sapiens, 5057DOX assay 5, 72 hour incubation
OVCAR-3 = experiment: CellTiter-Blue cell viability assay: OVCAR-3; assay type: cell-based; settings: Homo sapiens, 5057DOX assay 5, 72 hour incubation
FAP [1] = target: T1, FAP (Homo sapiens, UniProt Q12884); experiment: Selectivity of FAP over PREP (5057DOX activation by recombinant enzyme); assay type: biochemical; settings: 240 nM 5057DOX, 12, 24 or 48 nM recombinant enzyme, 37° C., FIG. 12
T1 sequence (Q12884 1-760): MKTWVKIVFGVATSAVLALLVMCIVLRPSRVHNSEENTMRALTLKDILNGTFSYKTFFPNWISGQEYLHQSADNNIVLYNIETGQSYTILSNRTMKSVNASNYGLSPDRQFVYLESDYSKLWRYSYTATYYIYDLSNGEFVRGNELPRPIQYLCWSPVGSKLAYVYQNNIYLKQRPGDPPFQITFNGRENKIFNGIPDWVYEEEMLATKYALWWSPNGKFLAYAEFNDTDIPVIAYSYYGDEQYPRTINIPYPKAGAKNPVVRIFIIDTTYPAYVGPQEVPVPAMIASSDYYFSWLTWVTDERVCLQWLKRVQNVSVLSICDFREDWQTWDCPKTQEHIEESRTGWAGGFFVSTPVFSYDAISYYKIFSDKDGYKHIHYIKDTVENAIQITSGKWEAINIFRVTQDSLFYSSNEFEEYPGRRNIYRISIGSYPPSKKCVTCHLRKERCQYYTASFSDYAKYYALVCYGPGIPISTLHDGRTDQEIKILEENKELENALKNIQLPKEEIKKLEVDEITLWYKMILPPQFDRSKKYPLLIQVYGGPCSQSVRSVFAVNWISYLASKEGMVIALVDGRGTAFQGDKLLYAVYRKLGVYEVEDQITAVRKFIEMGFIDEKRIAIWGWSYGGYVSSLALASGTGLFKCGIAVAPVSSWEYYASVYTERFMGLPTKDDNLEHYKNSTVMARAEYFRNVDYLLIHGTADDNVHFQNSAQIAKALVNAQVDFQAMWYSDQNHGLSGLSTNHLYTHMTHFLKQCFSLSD
Protocol: Recombinant enzyme (FAP or PREP) was combined, at reaction concentration of 12 nM, 24 nM, or 48 nM, with 240 nM 5057DOX in FAP buffer (50 mM Tris-HCl, pH 7.4, 140 mM NaCl) and incubated at 37° C. Reactions were stopped at 0, 10, 20, or 30 minutes by addition of equal volume of 10 μM Val-boroPro (FAP inhibitor). Doxorubicin was measured by liquid chromatography/mass spectroscopy (LCMS).

HEK-Mock cells = experiment: CellTiter-Blue cell viability assay with HEK-Mock cells; assay type: cell-based; settings: Homo sapiens, 72 h
MCF-7 = experiment: CellTiter-Blue cell viability assay: MCF-7; assay type: cell-based; settings: Homo sapiens, MCF7, 5057DOX assay 5, 72 hour incubation
FAP [2] = target: T1, FAP; experiment: FAP digest of 5057DOX (kinetics); assay type: biochemical
[3] = 5057DOX assay 2, 72 hour incubation, read-out: EC50 (prodrug + 25 nM PREP)
[4] = 5057DOX assay 2, 72 hour incubation, read-out: EC50 (prodrug + 100 uM 2054-9)
[5] = 5057DOX assay 2, 72 hour incubation, read-out: EC50 (prodrug alone)
[6] = 5057DOX assay 3, 72 hour incubation, read-out: EC50 (prodrug + 100 uM 2054-9)
[7] = 5057DOX assay 3, 72 hour incubation, read-out: EC50 (prodrug + 100 uM 3099-15)
[8] = 5057DOX assay 3, 72 hour incubation, read-out: EC50 (prodrug alone)
[9] = 5057DOX assay 4, 72 hour incubation, read-out: EC50 (prodrug + 100 uM 5057)
[10] = 5057DOX assay 4, 72 hour incubation, read-out: EC50 (prodrug alone)
[11] = read-out: EC50 (prodrug + 25 nM FAP)
[12] = read-out: EC50 (prodrug + 100 uM 5057)

COc1cccc2c1C(=O)c1c(O)c3c(c(O)c1C2=O)C[C@@](O)(C(=O)CO)C[C@@H]3O[C@H]1C[C@H](NC(=O)[C@@H]2CC(F)(F)CN2C(=O)CNC(=O)c2ccnc3ccccc23)[C@H](O)[C@H](C)O1 [Compound 5057DOX]
pEC50 (HEK-mFAP cells; [3]): 6.96 | pEC50 (HEK-mFAP cells; [4]): 6.13 | pEC50 (HEK-mFAP cells; 5057DOX assay 2, 72 hour incubation, read-out: EC50 (prodrug + 100 uM 3099-15)): < 5.00 | pEC50 (HEK-mFAP cells; [5]): 6.85 | pEC50 (HEK-mFAP cells; [6]): 5.28 | pEC50 (HEK-mFAP cells; [7]): < 4.00 | pEC50 (HEK-mFAP cells; [8]): 6.22 | pEC50 (HEK-mFAP cells; [9]): < 4.00 | pEC50 (HEK-mFAP cells; [10]): 6.11 | pEC50 (HEK-mFAP cells; 5057DOX assay 8, 72 hour incubation, read-out: EC50 (prodrug + 100 uM 5057)): < 4.00 | pEC50 (HEK-mFAP cells; 5057DOX assay 8, 72 hour incubation, read-out: EC50 (prodrug alone)): 5.96 | pEC50 (SK-OV-3; [11]): 6.85 | pEC50 (SK-OV-3; [12]): 4.25 | pEC50 (SK-OV-3; read-out: EC50 (prodrug alone)): 6.08 | pEC50 (OVCAR-3; [11]): 6.00 | pEC50 (OVCAR-3; [12]): < 4.00 | pEC50 (OVCAR-3; read-out: EC50 (prodrug alone)): < 4.00 | activation by FAP as compared to PREP (FAP [1]): selectively activated by FAP as compared to PREP | pEC50 (HEK-Mock cells; 5057DOX assay 1, 72 hour incubation, read-out: EC50 (prodrug + 25 nM FAP)): 7.44 | pEC50 (HEK-Mock cells; 5057DOX assay 1, 72 hour incubation, read-out: EC50 (prodrug + 25 nM PREP)): 6.60 | pEC50 (HEK-Mock cells; 5057DOX assay 1, 72 hour incubation, read-out: EC50 (prodrug alone)): 6.32 | pEC50 (HEK-Mock cells; 5057DOX assay 2, 72 hour incubation, read-out: EC50 (prodrug + 25 nM FAP)): 7.59 | pEC50 (HEK-Mock cells; [3]): 6.66 | pEC50 (HEK-Mock cells; [4]): 5.01 | pEC50 (HEK-Mock cells; [5]): 6.34 | pEC50 (HEK-Mock cells; [6]): < 5.00 | pEC50 (HEK-Mock cells; [7]): < 4.00 | pEC50 (HEK-Mock cells; [8]): 5.64 | pEC50 (HEK-Mock cells; [9]): < 4.00 | pEC50 (HEK-Mock cells; [10]): 5.96 | pEC50 (MCF-7; [11]): 4.64 | pEC50 (MCF-7; [12]): < 4.00 | pEC50 (MCF-7; read-out: EC50 (prodrug alone)): < 4.00 | Kcat(Vmax/[E]) (FAP [2]; 5057DOX assay 6, [FAP] 4.00 × 10^−9M): Kcat(Vmax/[E]) 1.30 sec^−1 | Vmax (FAP [2]; 5057DOX assay 7, [FAP] 1 nM, Dox standards, Daunorubicin internal standard): Vmax 9.80 × 10^−10M/sec
